{"source": "patent US20170015718A1", "about": "“PRO-APOPTOTIC RAS AND RAF PEPTIDES” (UNIVERSITE PIERRE ET MARIE CURIE (PARIS 6), priority 2013, published 2017)", "key": {"[1]": {"test_system": "colon cancer cell line HCT116", "assay": "Apoptosis of colon cancer cell line HCT116", "format": "cell-based", "conditions": "12.5 μM for 72 h"}, "Ras/Raf interaction": {"test_system": "Ras/Raf interaction", "assay": "In vitro competition of Ras/Raf interaction (immunoprecipitation from cell lysates, blot)", "format": "binding, Human", "conditions": "1.5 mM of peptides, 30 min, room temperature; FIGS. 2A, 2B", "procedure": "FIGS. 2A and 2B show in vitro competition of Ras/Raf interaction. Cells were lysed for 20 min at 4° C. in lysis buffer (50 mM Tris (pH 8), 1% Nonidet P-40, 137 mM NaCl, 1 mM MgCl2, 1 mM CaCl2, 10% glycerol, and protease inhibitor mixture). Lysates (800 μg of protein) were immunoprecipitated with the appropriate Ab overnight at 4° C., and protein A-Sepharose was added for 1 h at 4° C. After washing with 1×TBST (20 mM Tris-HCl (pH 7.5), 150 mM NaCl, 0.05% Tween 20), the Ras/Raf interaction was competed using peptides Mut3DPT-Ras (A) or Mut3DPT-Raf+Mut3DPT-Raf2 (B) at a concentration of 1.5 mM for 30 min at room temperature. After a washing, immunoprecipitates were transferred to nitrocellulose and blotted with the corresponding Ab.\nThe Ras/Raf interaction was competed using peptides corresponding to the binding site of Ras to Raf and vice versa. Lysates from MDA-MB321 or BC52 cell lines were immunoprecipitated with anti-Ras or anti-Raf Ab, and protein A-Sepharose was added. The Ras/Raf interaction was competed with 1.5 mM of peptides (30 min, room temperature). After washing steps, immunoprecipitates were transferred to nitrocellulose and blotted with the corresponding Ab. Proteins were detected using the ECL system."}, "[2]": {"test_system": "K-Ras mutated cell line SW626", "assay": "Apoptosis by Annexin V-FITC staining, SW626", "format": "cell-based, Human", "conditions": "SW626, 100 μM for 24 h; FIG. 3C", "procedure": "FIGS. 3A to 3D show effect of peptides on apoptosis. A) MDA-MB231 cell line (mutated K-Ras) was cultured in the presence of the identified peptides at a concentration of 100 μM for 24 h. Apoptosis was detected by Annexin V-FITC staining and analyzed by flow cytometry. B) MDA-MB231 cell line was cultured as above, but to a concentration of 10 or 25 μM peptides. Apoptosis was estimated by annexin V-FITC staining. C) The K-Ras mutated cell line SW626 was cultured and analyzed as in A. D) The wild type K-RAs cell line BC 227 was cultured and analyzed as in A.\nApoptotic cells were detected using Annexin-V (-FITC from BD biosciences) as described by the manufacturer. Briefly, the cells were washed in 1× binding buffer, centrifugated and then resuspended in 200 μl of 1× binding buffer containing Annexin V-FITC (0.1 μg/ml) and PI (0.5 μg/ml). After incubation at room temperature in the dark for 10 min, cells were analyzed by flow cytometry. Data acquired by FACSCalibur (BD biosciences) were analyzed with Cellquest Pro software."}, "[3]": {"test_system": "primary tumor cells of chronic lymphocytic leukemia (CLL)", "assay": "Apoptosis of primary tumor cells of chronic lymphocytic leukemia", "format": "cell-based"}}}
{"sequence": "VKKKKIKAEIKIHEHKGKKARLDWNTDAAS (chimeric peptide) [Mut3DPT-Raf2]", "values": [{"measurement": "apoptosis of HCT116", "setting": "[1]", "value": "cause apoptosis"}]}
{"sequence": "VKKKKIKAEIKIKMSKDGKKKKKKSKTKCVIM (chimeric peptide) [Mut3DPT-Ras]", "values": [{"measurement": "competition of the Ras/Raf interaction in vitro", "setting": "Ras/Raf interaction", "value": "able to compete in vitro the interaction Ras/Raf"}, {"measurement": "apoptotic effect", "setting": "[2]", "value": "lower level of apoptosis"}, {"measurement": "effect on CLL B and non-B cells", "setting": "[3]", "value": "marked effect"}]}
